Measured values published in patent US8202887B2, “2-(substituted-amino)-benzothiazole sulfonamide HIV protease inhibitors” (Janssen R&D Ireland, priority 2006, dated 2012).
Where two headings read alike, the source gives them in different places.

Tests used:
Assay type in all cases: cell-based
[1] = test system: clinically isolated HIV strain B; assay: Cellular anti-viral assay in MT4-LTR-EGFP cells, mutant strain B; details: for EC50: Human immunodeficiency virus 1, 72 h, read-out: pEC50 virus strain B (converted); for pEC50 virus strain B: MT4-LTR-EGFP cells, three days, GFP signal
Protocol: (§1) Because of the increasing emergence of drug resistant HIV strains, the present compounds were tested for their potency against clinically isolated HIV strains harboring several mutations. These mutations are associated with resistance to protease inhibitors and result in viruses that show various degrees of phenotypic cross-resistance to the currently commercially available drugs such as for instance saquinavir, ritonavir, nelfinavir, indinavir and amprenavir. The viral strains coded as A, B, C and D contain mutations as indicated below in Table 2.
(§2) The cellular assay was performed according to the following procedure. HIV- or mock-infected MT4-LTR-EGFP cells were incubated for three days in the presence of various concentrations of the compounds according to the invention. Upon infection, the viral tat protein activates the GFP reporter. At the end of the incubation period, the GFP signal was measured. In the virus control samples (in the absence of any inhibitor) the maximal fluorescent signal was obtained. The inhibitory activity of the compound was monitored on the virus-infected cells and was expressed as EC50. These values represent the amount of the compound required to protect 50% of the cells from virus infection. (Table 3).

[2] = test system: clinically isolated HIV strain A; assay: Cellular anti-viral assay in MT4-LTR-EGFP cells, mutant strain A; details: for EC50: Human immunodeficiency virus 1, 72 h, read-out: pEC50 virus strain A (converted); for pEC50 virus strain A: MT4-LTR-EGFP cells, three days, GFP signal
Protocol: as §1, §2

[3] = test system: clinically isolated HIV strain C; assay: Cellular anti-viral assay in MT4-LTR-EGFP cells, mutant strain C; details: for EC50: Human immunodeficiency virus 1, 72 h, read-out: pEC50 virus strain C (converted); for pEC50 virus strain C: MT4-LTR-EGFP cells, three days, GFP signal
Protocol: as §1, §2

[4] = test system: wild type laboratory HIV strain (WT IIIB-2-001); assay: Cellular anti-viral assay in MT4-LTR-EGFP cells, wild type strain; details: for EC50: Human immunodeficiency virus 1, IIIB, 72 h, read-out: pEC50 WT-IIIB-2-001 (converted)
Protocol: The compounds were tested in a cellular assay using the MT4-LTR-EGFP cells for anti-viral activity.
as §2, with “In the virus control samples (in the absence of any inhibitor) the maximal fluorescent signal was obtained.” left out, “infection.” for “infection. (Table 3).”

[5] = test system: clinically isolated HIV strain D; assay: Cellular anti-viral assay in MT4-LTR-EGFP cells, mutant strain D; details: for pEC50 virus strain D: MT4-LTR-EGFP cells, three days, GFP signal; for EC50: Human immunodeficiency virus 1, 72 h, read-out: pEC50 virus strain D (converted)
Protocol: as §1, §2

[6] = MT4-LTR-EGFP cells, three days, GFP signal

## COCCN1CCC(Nc2nc3ccc(S(=O)(=O)N(CC(C)C)C[C@@H](O)[C@H](Cc4ccccc4)NC(=O)O[C@H]4CO[C@H]5OCC[C@H]54)cc3s2)C1 (stereo in doubt) [Compound 17, [1-Benzyl-2-hydroxy-3-(isobutyl-{2-[1-(2-methoxy-ethyl)-pyrrolidin-3-ylamino]-benzothiazole-6-sulfonyl}-amino)-propyl]-carbamic acid hexahydro-furo[2,3-b]furan-3-yl ester]
[1]
  EC50: 17 nM
[2]
  EC50: 13.2 nM
[3]
  EC50: 3390 nM
[4]; [6]
  EC50: 18.6 nM

## CC(C)CN(CC(O)C(Cc1ccccc1)NC(=O)OC1COC2OCCC12)S(=O)(=O)c1ccc2nc(NC3CCN(Cc4ccncc4)C3)sc2c1 (stereo not shown) [Compound 22]
[1]
  pEC50 virus strain B: 7.77
[3]
  pEC50 virus strain C: 6.19
[4]; [6]
  pEC50 WT-IIIB-2-001: 7.71

## CC(C)CN(CC(O)C(Cc1ccccc1)NC(=O)OC1COC2OCCC12)S(=O)(=O)c1ccc2nc(NC3CCN(Cc4cncs4)C3)sc2c1 (stereo not shown) [Compound 24]
[1]
  pEC50 virus strain B: 7.70
[5]
  pEC50 virus strain D: 7.89
[2]
  pEC50 virus strain A: 7.91
[3]
  pEC50 virus strain C: 5.08
[4]; [6]
  pEC50 WT-IIIB-2-001: 8.22

## COCCN1CCC(Nc2nc3ccc(S(=O)(=O)N(CC(C)C)C[C@@H](O)[C@H](Cc4ccccc4)NC(=O)O[C@H]4CO[C@H]5OCC[C@H]54)cc3s2)CC1 [Compound 8]
[1]
  pEC50 virus strain B: 7.00
[2]
  pEC50 virus strain A: 6.65
[3]
  pEC50 virus strain C: 5.25
[4]; [6]
  pEC50 WT-IIIB-2-001: 7.44

## CC(C)CN(C[C@@H](O)[C@H](Cc1ccccc1)NC(=O)O[C@H]1CO[C@H]2OCC[C@H]21)S(=O)(=O)c1ccc2nc(NC3CCN(C(=O)CN(C)C)CC3)sc2c1 [Compound 9]
[1]
  pEC50 virus strain B: 6.59
[5]
  pEC50 virus strain D: 6.99
[2]
  pEC50 virus strain A: 6.99
[3]
  pEC50 virus strain C: 5.00
[4]; [6]
  pEC50 WT-IIIB-2-001: 6.56

## CC(C)CN(C[C@@H](O)[C@H](Cc1ccccc1)NC(=O)O[C@H]1CO[C@H]2OCC[C@H]21)S(=O)(=O)c1ccc2nc(NC3CCN(Cc4cccnc4)CC3)sc2c1 [Compound 14]
[1]
  pEC50 virus strain B: 7.78
[5]
  pEC50 virus strain D: 7.84
[2]
  pEC50 virus strain A: 7.85
[3]
  pEC50 virus strain C: 5.90
[4]
  pEC50 WT-IIIB-2-001: 7.85

## COCCN1CCC(Nc2nc3ccc(S(=O)(=O)N(CC(C)C)CC(O)C(Cc4ccccc4)NC(=O)OC4COC5OCCC45)cc3s2)C1 (stereo not shown) [Compound 18]
[1]
  pEC50 virus strain B: 7.24
[2]
  pEC50 virus strain A: 7.61
[3]
  pEC50 virus strain C: 5.32
[4]; [6]
  pEC50 WT-IIIB-2-001: 7.76

## CC(C)CN(CC(O)C(Cc1ccccc1)NC(=O)OC1COC2OCCC12)S(=O)(=O)c1ccc2nc(NC3CCN(Cc4ccccn4)C3)sc2c1 (stereo not shown) [Compound 25]
[1]
  pEC50 virus strain B: 5.04
[5]
  pEC50 virus strain D: 5.41
[2]
  pEC50 virus strain A: 5.59
[3]
  pEC50 virus strain C: <4.49
[4]; [6]
  pEC50 WT-IIIB-2-001: 5.77

## CC(C)CN1CCC(Nc2nc3ccc(S(=O)(=O)N(CC(C)C)C[C@@H](O)[C@H](Cc4ccccc4)NC(=O)O[C@H]4CO[C@H]5OCC[C@H]54)cc3s2)CC1 [Compound 6]
[1]
  pEC50 virus strain B: 7.58
[5]
  pEC50 virus strain D: 7.86
[2]
  pEC50 virus strain A: 7.84
[3]
  pEC50 virus strain C: 5.46
[4]; [6]
  pEC50 WT-IIIB-2-001: 8.31

## CC(C)CN(C[C@@H](O)[C@H](Cc1ccccc1)NC(=O)O[C@H]1CO[C@H]2OCC[C@H]21)S(=O)(=O)c1ccc2nc(NC3CCN(Cc4ccccc4)CC3)sc2c1 [Compound 11, (1-Benzyl-3-{[2-(1-benzyl-piperidin-4-ylamino)-benzothiazole-6-sulfonyl]-isobutyl-amino}-2-hydroxy-propyl)-carbamic acid hexahydro-furo[2,3-b]furan-3-yl ester]
[1]
  EC50: 33.9 nM
[5]
  EC50: 18.6 nM
[2]
  EC50: 22.4 nM
[3]
  EC50: 5750 nM
[4]; [6]
  EC50: 2.51 nM

## CC(C)CN1CCC(Nc2nc3ccc(S(=O)(=O)N(CC(C)C)CC(O)C(Cc4ccccc4)NC(=O)OC4COC5OCCC45)cc3s2)C1 (stereo not shown) [Compound 20]
[1]
  pEC50 virus strain B: 7.84
[5]
  pEC50 virus strain D: 8.12
[2]
  pEC50 virus strain A: 8.23
[3]
  pEC50 virus strain C: 5.59
[4]; [6]
  pEC50 WT-IIIB-2-001: 8.27

## CC(C)CN(C[C@@H](O)[C@H](Cc1ccccc1)NC(=O)O[C@H]1CO[C@H]2OCC[C@H]21)S(=O)(=O)c1ccc2nc(NC3CCN(C(C)C)CC3)sc2c1 [Compound 5]
[1]
  pEC50 virus strain B: 7.57
[5]
  pEC50 virus strain D: 7.86
[2]
  pEC50 virus strain A: 7.89
[3]
  pEC50 virus strain C: 5.38
[4]; [6]
  pEC50 WT-IIIB-2-001: 7.72

## CC(C)CN1CCC(Nc2nc3ccc(S(=O)(=O)N(CC(C)C)CC(O)C(Cc4ccccc4)NC(=O)OC4COC5OCCC45)cc3s2)C1 (stereo not shown) [Compound 19]
[1]
  pEC50 virus strain B: 7.33
[5]
  pEC50 virus strain D: 7.75
[2]
  pEC50 virus strain A: 7.84
[3]
  pEC50 virus strain C: 5.35
[4]; [6]
  pEC50 WT-IIIB-2-001: 8.42

## CC(C)CN(C[C@@H](O)[C@H](Cc1ccccc1)NC(=O)O[C@H]1CO[C@H]2OCC[C@H]21)S(=O)(=O)c1ccc2nc(NC3CCN(Cc4cncs4)CC3)sc2c1 [Compound 15]
[1]
  pEC50 virus strain B: 7.71
[5]
  pEC50 virus strain D: 8.24
[2]
  pEC50 virus strain A: 8.38
[3]
  pEC50 virus strain C: 5.46
[4]
  pEC50 WT-IIIB-2-001: 8.24

## CC(C)CN(CC(O)C(Cc1ccccc1)NC(=O)OC1COC2OCCC12)S(=O)(=O)c1ccc2nc(NC3CCN(Cc4cncs4)C3)sc2c1 (stereo not shown) [Compound 23]
[1]
  pEC50 virus strain B: 7.56
[5]
  pEC50 virus strain D: 8.27
[2]
  pEC50 virus strain A: 8.56
[3]
  pEC50 virus strain C: 5.36
[4]; [6]
  pEC50 WT-IIIB-2-001: 7.97

## CC(C)CN(C[C@@H](O)[C@H](Cc1ccccc1)NC(=O)O[C@H]1CO[C@H]2OCC[C@H]21)S(=O)(=O)c1ccc2nc(NC3CCN(C(=O)CN4CCOCC4)CC3)sc2c1 [Compound 10]
[1]
  pEC50 virus strain B: 6.52
[5]
  pEC50 virus strain D: 6.62
[2]
  pEC50 virus strain A: 6.84
[3]
  pEC50 virus strain C: 5.11
[4]; [6]
  pEC50 WT-IIIB-2-001: 6.53

## CC(C)CN(C[C@@H](O)[C@H](Cc1ccccc1)NC(=O)O[C@H]1CO[C@H]2OCC[C@H]21)S(=O)(=O)c1ccc2nc(NC3CCN(Cc4ccccn4)CC3)sc2c1 [Compound 13]
[1]
  pEC50 virus strain B: 7.94
[5]
  pEC50 virus strain D: 7.98
[2]
  pEC50 virus strain A: 8.06
[3]
  pEC50 virus strain C: 6.04
[4]; [6]
  pEC50 WT-IIIB-2-001: 8.18

## CC(C)CN(C[C@@H](O)[C@H](Cc1ccccc1)NC(=O)O[C@H]1CO[C@H]2OCC[C@H]21)S(=O)(=O)c1ccc2nc(NC3CCN(Cc4cccnc4)C3)sc2c1 (stereo in doubt) [Compound 21, (1-Benzyl-2-hydroxy-3-{isobutyl-[2-(1-pyridin-3-ylmethyl-pyrrolidin-3-ylamino)-benzothiazole-6-sulfonyl}-amino]-propyl)-carbamic acid hexahydro-furo[2,3-b]furan-3-yl ester]
[1]
  EC50: 14.5 nM
[5]
  EC50: 7.08 nM
[2]
  EC50: 4.9 nM
[3]
  EC50: 1820 nM
[4]; [6]
  EC50: 11.2 nM

## CC(C)CN(C[C@@H](O)[C@H](Cc1ccccc1)NC(=O)O[C@H]1CO[C@H]2OCC[C@H]21)S(=O)(=O)c1ccc2nc(NC3CCN(Cc4ccncc4)CC3)sc2c1 [Compound 12]
[1]
  pEC50 virus strain B: 7.71
[5]
  pEC50 virus strain D: 8.27
[2]
  pEC50 virus strain A: 8.26
[3]
  pEC50 virus strain C: 5.19
[4]; [6]
  pEC50 WT-IIIB-2-001: 8.34

## CC(C)CN(C[C@@H](O)[C@H](Cc1ccccc1)NC(=O)O[C@H]1CO[C@H]2OCC[C@H]21)S(=O)(=O)c1ccc2nc(NC3CCNC3)sc2c1 (stereo partly shown) [Compound 16]
[1]
  pEC50 virus strain B: 5.89
[2]
  pEC50 virus strain A: 5.93
[3]
  pEC50 virus strain C: 5.90
[4]; [6]
  pEC50 WT-IIIB-2-001: 6.82
